Like-named read-outs stand apart in the source and are kept apart here.
Key:
KB cells = assay type: cell-based, human; conditions: read-out: IC50 value, 3H-thymidine incorporation
Experimental: The conjugates described herein were evaluated using an in vitro cytotoxicity assay that predicted the ability of the drug to inhibit the growth of the corresponding targeted cells, such as, but not limited to the following
It is to be understood that the choice of cell type can be made on the basis of the susceptibility of those selected cells to the drug that forms the conjugate, and the relative expression of the cell surface receptor or target antigen. The test conjugates were conjugates of a cell surface receptor or target antigen binding compound and PBD prodrugs, poly-PBD prodrugs, and mixed PBDs, as described herein. The test cells were exposed to varying concentrations of the conjugates, and optionally also in the absence or presence of at least a 100-fold excess of the unconjugated cell surface receptor or target antigen binding compound for competition studies to assess activity as being specific to the cell surface receptor or target antigen.
KB cells were seeded in individual 24-well Falcon plates and allowed to form nearly confluent monolayers overnight in folate free Roswell Park Memorial Institute (FFRPMI)/Heat-Inactivated Fetal Calf Serum (HIFCS). Thirty minutes prior to the addition of folate-conjugate, spent medium was aspirated from all wells and replaced with either fresh FFRPMI or FFRPMI supplemented with 100 μM folic acid. […] Cells were pulsed for 2 h at 37° C., rinsed 4 times with 0.5 mL of medium and then chased in 1 mL of fresh medium up to 72 h. Spent medium was aspirated from all wells and replaced with fresh medium containing 5 μCi/mL of ^3H-thymidine. Following a 2 h incubation at 37° C., cells were washed 3 times with 0.5 mL of PBS and then treated with 0.5 mL of ice-cold 5% trichloroacetic acid per well. After 15 min, the trichloroacetic acid was aspirated and the cells solubilized by the addition of 0.5 mL of 0.25 N sodium hydroxide for 15 min at room temperature. Four hundred and fifty […] of each solubilized sample were transferred to scintillation vials containing 3 mL of Ecolume scintillation cocktail and counted in a liquid scintillation counter. Final results were expressed as the percentage of ^3H-thymidine incorporation relative to untreated controls.

KB tumor = experiment: Antitumor activity in large KB tumor model; assay type: in vivo, mice; conditions: for cures / complete responses / PRs (partial responses): once a week for two weeks; for KB tumor size compared to untreated control: 0.5 μmol/kg SIW for two weeks
Experimental: Female Balb/c nu/nu mice were fed ad libitum with folate-deficient chow (Harlan diet #TD01013) for the duration of the experiment. KB tumor cells were inoculated subcutaneously at the right flank of each mouse. Mice were dosed after the tumors reached an average of 100 and 180 mm^3 through the lateral tail vein under sterile conditions in a volume of […] of phosphate-buffered saline (PBS).
Growth of each s.c. tumor was followed by measuring the tumor two times per week. Tumors were measured in two perpendicular directions using Vernier calipers, and their volumes were calculated as 0.5×L×W^2, where L=measurement of longest axis in mm and W=measurement of axis perpendicular to L in mm.

[1] = Toxicity in KB tumor bearing mice; assay type: in vivo; conditions: 0.5 μmol/kg, once a week for two weeks
Experimental: The percentage weight change of the test animals was determined on selected days post-tumor inoculation (PTI), and during dosing. The results were graphed.

[2] = with excess folate (100 μM folic acid)
[3] = without excess folate, 2 h pulse, chase up to 72 h

SMILES	IC50 (KB cells; [2])	IC50 (KB cells; [3])	cures (KB tumor; 0.5 μmol/kg)	day on which mice had to be euthanized due to toxicity [1]	complete responses (KB tumor; 0.5 μmol/kg)	cures (KB tumor; 0.2 μmol/kg)	PRs (partial responses) (KB tumor; 1 μmol/kg)	PRs (partial responses) (KB tumor; 0.5 μmol/kg)	KB tumor size compared to untreated control (KB tumor)
C=C1C[C@H]2[C@H](O)N(C(=O)OCC(C)SSC[C@H](CC(=O)[C@H](CC(=O)O)NC(=O)[C@H](CC(=O)O)NC(=O)[C@H](CCCNC(=N)N)NC(=O)[C@H](CC(=O)O)NC(=O)CC[C@H](NC(=O)c3ccc(NCc4cnc5nc(N)[nH]c(=O)c5n4)cc3)C(=O)O)C(=O)O)c3cc(OCCCCCOc4cc5c(cc4OC)C(=O)N4CC(=C)C[C@H]4[C@H](O)N5C(=O)OCC(C)SSC[C@H](NC(=O)[C@H](CC(=O)O)NC(=O)[C@H](CC(=O)O)NC(=O)[C@H](CCCNC(=N)N)NC(=O)[C@H](CC(=O)O)NC(=O)CC[C@H](NC(=O)c4ccc(NCc5cnc6nc(N)[nH]c(=O)c6n5)cc4)C(=O)O)C(=O)O)c(OC)cc3C(=O)N2C1 (some centres unmarked) [Conjugate 2]	16 nM	0.14 nM	100%	–	–	–	–	–	–
C=C1C[C@H]2C=Nc3cc(OCCCCCOc4cc5c(cc4OC)C(=O)N4CC(=C)C[C@H]4[C@H](O)N5C(=O)OCCSSC[C@H](NC(=O)[C@H](CC(=O)O)NC(=O)[C@H](CC(=O)O)NC(=O)[C@H](CCCNC(=N)N)NC(=O)[C@H](CC(=O)O)NC(=O)CC[C@H](NC(=O)c4ccc(NCc5cnc6nc(N)[nH]c(=O)c6n5)cc4)C(=O)O)C(=O)O)c(OC)cc3C(=O)N2C1 [Conjugate 3]	3 nM	0.039 nM	–	48 days	100%	–	–	–	–
C=C1C[C@H]2C=Nc3cc(OCCCCCOc4cc(N)c(C(=O)N5CC(=C)C[C@H]5C5OCCN5C(=O)OCC(C)SSC[C@H](NC(=O)[C@H](CC(=O)O)NC(=O)[C@H](CC(=O)O)NC(=O)[C@H](CCCNC(=N)N)NC(=O)[C@H](CC(=O)O)NC(=O)CC[C@H](NC(=O)c5ccc(NCc6cnc7nc(N)[nH]c(=O)c7n6)cc5)C(=O)O)C(=O)O)cc4OC)c(OC)cc3C(=O)N2C1 (some centres unmarked) [Conjugate 4]	6 nM	0.049 nM	100%	–	–	–	–	–	–
C=C1C[C@H]2C=Nc3cc(OCCCCCOc4cc(N)c(C(=O)N5CC(=C)C[C@H]5C5OCCN5C(=O)OCC(C)(C)SSCCC(=O)NCCNC(=O)CCOCCOCCOCCOCCNC(=O)CCN5C(=O)CC(SC[C@@H](NC(=O)[C@H](CCC(=O)NC[C@H](O)[C@@H](O)[C@H](O)[C@H](O)CO)NC(=O)[C@@H](CCC(=O)O)NC(=O)[C@H](CCC(=O)NC[C@H](O)[C@@H](O)[C@H](O)[C@H](O)CO)NC(=O)[C@@H](CCC(=O)O)NC(=O)[C@H](CCC(=O)NC[C@H](O)[C@@H](O)[C@H](O)[C@H](O)CO)NC(=O)CC[C@H](NC(=O)c6ccc(NCc7cnc8nc(N)[nH]c(=O)c8n7)cc6)C(=O)O)C(=O)O)C5=O)cc4OC)c(OC)cc3C(=O)N2C1 (some centres unmarked) [Conjugate 6]	3 nM	0.048 nM	50%	–	50%	–	–	–	–
C=C1C[C@H]2C=Nc3cc(OCCCCCOc4cc(N)c(C(=O)N5CC(=C)C[C@H]5C5OCCN5C(=O)OCC(C)(C)SSCCC(=O)NCCNC(=O)CCOCCOCCOCCOCCOCCOCCOCCOCCOCCOCCOCCOCCOCCOCCOCCOCCOCCOCCOCCOCCOCCOCCOCCOCCOCCOCCOCCOCCOCCOCCOCCOCCOCCOCCOCCOCCNC(=O)CCN5C(=O)CC(SC[C@H](NC(=O)[C@H](CC(=O)O)NC(=O)[C@H](CC(=O)O)NC(=O)[C@H](CCCNC(=N)N)NC(=O)[C@H](CC(=O)O)NC(=O)CC[C@H](NC(=O)c6ccc(NCc7cnc8nc(N)[nH]c(=O)c8n7)cc6)C(=O)O)C(=O)O)C5=O)cc4OC)c(OC)cc3C(=O)N2C1 (some centres unmarked) [Conjugate 7]	5 nM	0.13 nM	100%	–	–	–	–	–	–
C=C1C[C@H]2C=Nc3cc(OCCCCCOc4cc(N)c(C(=O)N5CC(=C)C[C@H]5C5OCCN5C(=O)OCC(C)(C)SSCCC(=O)NCCNC(=O)CCOCCOCCOCCOCCOCCOCCOCCOCCOCCOCCOCCOCCNC(=O)CCN5C(=O)CC(SC[C@H](NC(=O)[C@H](CC(=O)O)NC(=O)[C@H](CC(=O)O)NC(=O)[C@H](CCCNC(=N)N)NC(=O)[C@H](CC(=O)O)NC(=O)CC[C@H](NC(=O)c6ccc(NCc7cnc8nc(N)[nH]c(=O)c8n7)cc6)C(=O)O)C(=O)O)C5=O)cc4OC)c(OC)cc3C(=O)N2C1 (some centres unmarked) [Conjugate 8]	0.3 nM	0.055 nM	–	–	–	100%	–	–	–
C=C1C[C@H]2C=Nc3cc(OCCCCCOc4cc5c(cc4OC)C(=O)N4CC(=C)C[C@H]4C(=O)N5COC(=O)CCCSSC[C@@H](NC(=O)[C@H](CCC(=O)NC[C@H](O)[C@@H](O)[C@H](O)[C@H](O)CO)NC(=O)[C@@H](CCC(=O)O)NC(=O)[C@H](CCC(=O)NC[C@H](O)[C@@H](O)[C@H](O)[C@H](O)CO)NC(=O)[C@@H](CCC(=O)O)NC(=O)[C@H](CCC(=O)NC[C@H](O)[C@@H](O)[C@H](O)[C@H](O)CO)NC(=O)CC[C@H](NC(=O)c4ccc(NCc5cnc6nc(N)[nH]c(=O)c6n5)cc4)C(=O)O)C(=O)O)c(OC)cc3C(=O)N2C1 [Conjugate 9]	67 nM	0.8 nM	–	–	–	–	0%	–	–
C=C1C[C@H]2C=Nc3cc(OCCCCCOc4cc(N)c(C(=O)N5CC(=C)C[C@H]5C5CCCN5C(=O)OC[C@@H](SSC[C@H](NC(=O)[C@H](CC(=O)O)NC(=O)[C@H](CC(=O)O)NC(=O)[C@H](CCCNC(=N)N)NC(=O)[C@H](CC(=O)O)NC(=O)CC[C@H](NC(=O)c5ccc(NCc6cnc7nc(N)[nH]c(=O)c7n6)cc5)C(=O)O)C(=O)O)C(C)C)cc4OC)c(OC)cc3C(=O)N2C1 (some centres unmarked) [Conjugate 12]	–	–	–	40 days	–	–	–	100%	–
C=C1C[C@H]2C=Nc3cc(OCCCCCOc4cc(NC(=O)OCCSSC[C@H](NC(=O)[C@H](CC(=O)O)NC(=O)[C@H](CC(=O)O)NC(=O)[C@H](CCCNC(=N)N)NC(=O)[C@H](CC(=O)O)NC(=O)CC[C@H](NC(=O)c5ccc(NCc6cnc7nc(N)[nH]c(=O)c7n6)cc5)C(=O)O)C(=O)O)c(C(=O)N5CC(=C)C[C@H]5/C=N/OC)cc4OC)c(OC)cc3C(=O)N2C1 [Conjugate 16]	5 nM	0.07 nM	60%	–	40%	–	–	–	–
C=C1CC(/C=N/OC)N(C(=O)c2cc(OC)c(OCCCCCOc3cc4c(cc3OC)C(=O)N3CC(=C)C[C@H]3C=N4)cc2NC(=O)OCC(C)(C)SSCCC(=O)NCCNC(=O)CCN2C(=O)CC(SC[C@H](NC(=O)[C@H](CC(=O)O)NC(=O)[C@H](CC(=O)O)NC(=O)[C@H](CCCNC(=N)N)NC(=O)[C@H](CC(=O)O)NC(=O)CC[C@H](NC(=O)c3ccc(NCc4cnc5nc(N)[nH]c(=O)c5n4)cc3)C(=O)O)C(=O)O)C2=O)C1 (some centres unmarked) [Conjugate 18]	2 nM	0.065 nM	–	–	–	–	–	–	decreased KB tumor size
C=C1C[C@H]2C=Nc3cc(OCCCCCOc4cc(NC(=O)OCC(C)(C)SSCCC(=O)NCCNC(=O)CCOCCOCCOCCOCCOCCOCCOCCOCCOCCOCCOCCOCCNC(=O)CCN5C(=O)CC(SC[C@H](NC(=O)[C@H](CC(=O)O)NC(=O)[C@H](CC(=O)O)NC(=O)[C@H](CCCNC(=N)N)NC(=O)[C@H](CC(=O)O)NC(=O)CC[C@H](NC(=O)c6ccc(NCc7cnc8nc(N)[nH]c(=O)c8n7)cc6)C(=O)O)C(=O)O)C5=O)c(C(=O)N5CC(=C)C[C@H]5/C=N/OC)cc4OC)c(OC)cc3C(=O)N2C1 (some centres unmarked) [Conjugate 20]	0.7 nM	0.04 nM	–	–	–	–	–	–	decreased KB tumor size

— US20200323991A1, “PBD CONJUGATES FOR TREATING DISEASES” (ENDOCYTE, INC., priority 2016, published 2020)
